In brackets after ≈: the same amount, converted by molar mass.
How the values were obtained:
[1] = test system: Escherichia coli; experiment: Antibacterial activity against Escherichia coli; assay type: functional
[2] = test system: Mycobacterium avium; experiment: Antibacterial activity against Mycobacterium avium; assay type: functional
[3] = test system: Bacillus subtilis; experiment: Antibacterial activity against Bacillus subtilis; assay type: functional
[4] = test system: Mycolicibacterium smegmatis; experiment: Antibacterial activity against Mycobacterium smegmatis; assay type: functional
[5] = test system: Mycobacterium intracellulare; experiment: Antibacterial activity against Mycobacterium intracellulare; assay type: functional
[6] = test system: Staphylococcus aureus; experiment: Antibacterial activity against Staphylococcus aureus; assay type: functional
[7] = test system: Mycolicibacterium fortuitum; experiment: Antibacterial activity against Mycobacterium fortuitum; assay type: functional
[8] = test system: Mycobacterium tuberculosis; experiment: Antibacterial activity against Mycobacterium tuberculosis; assay type: functional
[9] = test system: Staphylococcus aureus; experiment: Antibacterial activity against methicillin resistant Staphylococcus aureus after 20 hrs by NCCLS-based two-fold broth dilution method; assay type: functional; conditions: read-out: MIC
[10] = test system: Enterococcus faecalis; experiment: Antibacterial activity against t Enterococcus faecalis VRE after 20 hrs by NCCLS-based two-fold broth dilution method; assay type: functional; conditions: read-out: MIC
[11] = test system: Enterococcus faecalis; experiment: Antibacterial activity against Enterococcus faecalis ATCC 29212; assay type: functional
[12] = test system: Streptococcus pneumoniae; experiment: Antibacterial activity against Streptococcus pneumoniae after 20 hrs by NCCLS-based two-fold broth dilution method; assay type: functional
[13] = test system: Pseudomonas aeruginosa; experiment: Antibacterial activity against Pseudomonas aeruginosa YY165; assay type: functional
[14] = test system: Haemophilus influenzae; experiment: Antibacterial activity against Haemophilus influenzae after 20 hrs by NCCLS-based two-fold broth dilution method; assay type: functional
[15] = test system: Staphylococcus aureus; experiment: Antibacterial activity against methicillin resistant Staphylococcus aureus SR3637; assay type: functional
[16] = test system: Enterococcus faecium; experiment: Antibacterial activity against Enterococcus faecium SR7917 (VRE); assay type: functional
[17] = test system: Pseudomonas aeruginosa; experiment: Antibacterial activity against Pseudomonas aeruginosa after 20 hrs by NCCLS-based two-fold broth dilution method; assay type: functional
[18] = test system: Enterococcus faecium; experiment: Antibacterial activity against t Enterococcus faecium after 20 hrs by NCCLS-based two-fold broth dilution method; assay type: functional
[19] = test system: Enterococcus faecium; experiment: Antibacterial activity against Enterococcus faecium ATCC 19434; assay type: functional
[20] = test system: Enterococcus faecalis; experiment: Antibacterial activity against Enterococcus faecalis SR7914 (VRE); assay type: functional
[21] = test system: Enterococcus faecalis; experiment: Antibacterial activity against t Enterococcus faecalis after 20 hrs by NCCLS-based two-fold broth dilution method; assay type: functional; conditions: read-out: MIC
[22] = test system: Staphylococcus aureus; experiment: Antibacterial activity against methicillin susceptible Staphylococcus aureus ATCC 29213; assay type: functional
[23] = test system: Haemophilus influenzae; experiment: Antibacterial activity against Haemophilus influenzae ATCC 10211; assay type: functional
[24] = test system: Staphylococcus aureus; experiment: Antibacterial activity against methicillin susceptible Staphylococcus aureus after 20 hrs by NCCLS-based two-fold broth dilution method; assay type: functional; conditions: read-out: MIC
[25] = biological target: T1, Phospho-N-acetylmuramoyl-pentapeptide-transferase (Bacillus subtilis (strain 168), UniProt Q03521); experiment: Inhibition of MraY in Bacillus subtilis
T1 sequence (Q03521 whole entry): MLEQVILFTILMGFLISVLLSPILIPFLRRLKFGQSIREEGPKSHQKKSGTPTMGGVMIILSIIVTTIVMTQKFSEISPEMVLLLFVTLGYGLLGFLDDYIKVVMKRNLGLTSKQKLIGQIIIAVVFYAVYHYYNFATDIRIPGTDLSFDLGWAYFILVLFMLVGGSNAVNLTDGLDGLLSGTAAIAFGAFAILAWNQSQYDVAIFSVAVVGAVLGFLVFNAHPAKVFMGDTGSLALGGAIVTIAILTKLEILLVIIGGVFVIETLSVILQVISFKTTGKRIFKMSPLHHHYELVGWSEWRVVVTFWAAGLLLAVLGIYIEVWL

[26] = test system: Mycobacterium tuberculosis; experiment: Inhibition of WecA in Mycobacterium tuberculosis mc2 6230
[27] = test system: Streptococcus pneumoniae; experiment: Antibacterial activity against Streptococcus pneumoniae S-223; assay type: functional
[28] = test system: Enterococcus faecalis; experiment: Antibacterial activity against Enterococcus faecalis JCM 5803; assay type: functional
[29] = test system: Bacillus subtilis; experiment: Inhibition of TagO in Bacillus subtilis
[30] = test system: Mycobacterium intracellulare; experiment: Antibacterial activity against Mycobacterium intracellulare after 20 hrs by NCCLS-based two-fold broth dilution method; assay type: functional
[31] = test system: Escherichia coli; experiment: Antibacterial activity against Escherichia coli after 20 hrs by NCCLS-based two-fold broth dilution method; assay type: functional
[32] = test system: Mycolicibacterium phlei; experiment: Antibacterial activity against Mycobacterium phlei after 20 hrs by NCCLS-based two-fold broth dilution method; assay type: functional
[33] = Antibacterial activity against Mycobacterium avium subsp. avium ATCC 25291; assay type: functional
[34] = test system: Staphylococcus aureus; experiment: Antibacterial activity against Staphylococcus aureus after 20 hrs by NCCLS-based two-fold broth dilution method; assay type: functional
[35] = test system: Mycolicibacterium smegmatis; experiment: Inhibition of WecA in Mycobacterium smegmatis
[36] = test system: Mycolicibacterium vaccae; experiment: Antibacterial activity against Mycobacterium vaccae after 20 hrs by NCCLS-based two-fold broth dilution method; assay type: functional
[37] = test system: Klebsiella pneumoniae; experiment: Antibacterial activity against Klebsiella pneumoniae after 20 hrs by NCCLS-based two-fold broth dilution method; assay type: functional
[38] = test system: Staphylococcus aureus; experiment: Antibacterial activity against Staphylococcus aureus FDA209P; assay type: functional; conditions: FDA 209P
[39] = test system: Enterococcus faecalis; experiment: Antibacterial activity against Enterococcus faecalis NCTC122103; assay type: functional
[40] = test system: Streptococcus pneumoniae; experiment: Antibacterial activity against Streptococcus pneumoniae CR-8; assay type: functional
[41] = test system: Staphylococcus aureus; experiment: Antibacterial activity against methicillin resistant Staphylococcus aureus No. 5; assay type: functional
[42] = test system: Bacillus subtilis; experiment: Antibacterial activity against Bacillus subtilis after 20 hrs by NCCLS-based two-fold broth dilution method; assay type: functional
[43] = test system: Mycobacterium avium; experiment: Antibacterial activity against Mycobacterium avium after 20 hrs by NCCLS-based two-fold broth dilution method; assay type: functional
[44] = test system: Mycobacterium tuberculosis; experiment: Antibacterial activity against Mycobacterium tuberculosis after 20 hrs by NCCLS-based two-fold broth dilution method; assay type: functional
[45] = test system: Mycobacterium intracellulare; experiment: Antibacterial activity against Mycobacterium intracellulare JCM3684; assay type: functional
[46] = test system: Mycolicibacterium smegmatis; experiment: Antibacterial activity against Mycobacterium smegmatis after 20 hrs by NCCLS-based two-fold broth dilution method; assay type: functional
[47] = test system: Mycobacterium tuberculosis; experiment: Inhibition of WecA in Mycobacterium tuberculosis
[48] = test system: Mycobacterium tuberculosis; experiment: Antibacterial activity against Mycobacterium tuberculosis H37Rv; assay type: functional
[49] = test system: Mycobacterium avium subsp. paratuberculosis; experiment: Antibacterial activity against Mycobacterium avium subsp. paratuberculosis ATCC 43015; assay type: functional
[50] = test system: Escherichia coli; experiment: Antibacterial activity against Escherichia coli ATCC 8730; assay type: functional
[51] = test system: Pseudomonas aeruginosa; experiment: Antibacterial activity against Pseudomonas aeruginosa ATCC 27853; assay type: functional
[52] = test system: Staphylococcus aureus; experiment: Antibacterial activity against methicillin resistant Staphylococcus aureus ATCC 43300; assay type: functional
[53] = test system: Staphylococcus aureus; experiment: Antibacterial activity against methicillin resistant Staphylococcus aureus; assay type: functional, organism-based
[54] = biological target: T1, Phospho-N-acetylmuramoyl-pentapeptide-transferase; experiment: Inhibition of MraY in Bacillus subtilis using UDP-MurNAc-[14C]pentapeptide as substrate by radioactivity scanning assay
[55] = test system: Staphylococcus aureus; experiment: Antibacterial activity against Staphylococcus aureus ATCC 25923; assay type: functional
[56] = test system: Citrobacter freundii; experiment: Antibacterial activity against Citrobacter freundii ATCC 8090; assay type: functional
[57] = biological target: T2, Phospho-N-acetylmuramoyl-pentapeptide-transferase (Aquifex aeolicus (strain VF5), UniProt O66465); experiment: Inhibition of MraY in Aquifex aeolicus
T2 sequence (O66465 whole entry): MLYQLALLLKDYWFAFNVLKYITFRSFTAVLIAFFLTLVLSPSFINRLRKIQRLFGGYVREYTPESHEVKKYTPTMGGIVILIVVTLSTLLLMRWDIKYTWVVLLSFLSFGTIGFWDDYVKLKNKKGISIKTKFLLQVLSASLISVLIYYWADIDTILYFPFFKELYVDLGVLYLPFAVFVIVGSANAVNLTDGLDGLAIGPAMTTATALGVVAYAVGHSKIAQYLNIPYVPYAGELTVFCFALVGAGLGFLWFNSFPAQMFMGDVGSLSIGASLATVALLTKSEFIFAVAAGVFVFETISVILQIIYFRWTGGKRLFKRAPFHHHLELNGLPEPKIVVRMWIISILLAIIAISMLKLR

CO[C@@H]1[C@@H](OC)[C@H](C)O[C@@H](OC(=O)C[C@@H](C)CC(=O)O[C@@H](CCCCCCCCCCC(C)C)CC(=O)O[C@H]2CN(C)[C@@H]([C@H](O[C@@H]3O[C@H](CN)[C@@H](O)[C@H]3O)[C@H]3O[C@@H](n4ccc(=O)[nH]c4=O)[C@H](O)[C@@H]3O)C(=O)N(C)[C@@H]2C(=O)O)[C@@H]1OC
MIC [1]: 100 µg/mL (≈ 87.2 µM)
MIC [2]: 6.25 to 50 µg/mL (≈ 5.45 to 43.6 µM)
MIC [3]: 6.25 to 12.5 µg/mL (≈ 5.45 to 10.9 µM)
MIC [4]: 1.56 to 3.13 µg/mL (≈ 1.36 to 2.73 µM)
MIC [5]: 1.56 to 25 µg/mL (≈ 1.36 to 21.8 µM)
MIC [6]: 1.56 to 6.25 µg/mL (≈ 1.36 to 5.45 µM)
MIC [7]: 50 µg/mL (≈ 43.6 µM)
MIC [8]: 3.13 to 12.5 µg/mL (≈ 2.73 to 10.9 µM)

CCCCCCCCC(CCCCCCCC)C(=O)N[C@@H]1CCN[C@@H]([C@H](O[C@@H]2O[C@H](CN)[C@@H](O)[C@H]2O)[C@H]2O[C@@H](n3ccc(=O)[nH]c3=O)[C@H](O)[C@@H]2O)C1
MIC [9]: 8 µg/mL (≈ 10.8 µM)
MIC [10]: 4 µg/mL (≈ 5.41 µM)
MIC [11]: 4 µg/mL (≈ 5.41 µM)
MIC [12]: 16 µg/mL (≈ 21.6 µM)
MIC [13]: 16 µg/mL (≈ 21.6 µM)
MIC [14]: 16 µg/mL (≈ 21.6 µM)
MIC [15]: 8 µg/mL (≈ 10.8 µM)
MIC [16]: 8 µg/mL (≈ 10.8 µM)
MIC [17]: 32 µg/mL (≈ 43.2 µM)
MIC [18]: 8 µg/mL (≈ 10.8 µM)
MIC [19]: 8 µg/mL (≈ 10.8 µM)
MIC [20]: 4 µg/mL (≈ 5.41 µM)
MIC [21]: 4 µg/mL (≈ 5.41 µM)
MIC [22]: 4 µg/mL (≈ 5.41 µM)
MIC [23]: 32 µg/mL (≈ 43.2 µM)
MIC [24]: 4 µg/mL (≈ 5.41 µM)

CCCCc1ccc(NC(=O)C2=CCN(C)[C@@H]([C@H](O[C@@H]3O[C@H](CN)[C@@H](O)[C@H]3O)[C@H]3O[C@@H](n4ccc(=O)[nH]c4=O)[C@H](O)[C@@H]3O)C(=O)N2C)cc1
IC50 [25]: 0.581 µM
MIC [26]: 0.04 µg/mL (≈ 0.0581 µM)
MIC [27]: 8 to 100 µg/mL (≈ 11.6 to 145 µM)
MIC [28]: 8 to 100 µg/mL (≈ 11.6 to 145 µM)
MIC [9]: 100 µg/mL (≈ 145 µM)
MIC [29]: 0.05 µg/mL (≈ 0.0726 µM)
MIC [30]: 0.2 µg/mL (≈ 0.29 µM)
MIC [31]: > 100 µg/mL
MIC [32]: 12.5 µg/mL (≈ 18.1 µM)
MIC [33]: 0.2 to 1.56 µg/mL (≈ 0.29 to 2.27 µM)
MIC [34]: 25 µg/mL (≈ 36.3 µM)
MIC [35]: 0.0044 µg/mL (≈ 0.00639 µM)
MIC [36]: 50 µg/mL (≈ 72.6 µM)
MIC [37]: 50 µg/mL (≈ 72.6 µM)
MIC [38]: 8 to 100 µg/mL (≈ 11.6 to 145 µM)
MIC [39]: 8 to 100 µg/mL (≈ 11.6 to 145 µM)
MIC [40]: 8 to 100 µg/mL (≈ 11.6 to 145 µM)
MIC [41]: 8 to 100 µg/mL (≈ 11.6 to 145 µM)
MIC [42]: 3.13 µg/mL (≈ 4.54 µM)
MIC [43]: 0.39 to 1.56 µg/mL (≈ 0.566 to 2.27 µM)
MIC [44]: 1.56 µg/mL (≈ 2.27 µM)
MIC [45]: 0.2 to 1.56 µg/mL (≈ 0.29 to 2.27 µM)
MIC [46]: 6.25 µg/mL (≈ 9.07 µM)
MIC [47]: 0.04 µg/mL (≈ 0.0581 µM)
MIC [48]: 0.2 to 1.56 µg/mL (≈ 0.29 to 2.27 µM)
MIC [49]: 0.2 to 1.56 µg/mL (≈ 0.29 to 2.27 µM)

NC[C@H]1O[C@@H](O[C@@H](c2cn(CCCCCCCCCCOc3ccc(C(=O)c4ccccc4)cc3)nn2)[C@H]2O[C@@H](n3ccc(=O)[nH]c3=O)[C@H](O)[C@@H]2O)[C@H](O)[C@@H]1O
IC50 [25]: 125 µM
MIC [50]: > 128 µg/mL
MIC [51]: > 128 µg/mL
MIC [52]: 8 µg/mL (≈ 10.3 µM)
IC50 [53]: 100 µM
IC50 [54]: 100 µM
MIC [19]: > 128 µg/mL
MIC [55]: 8 µg/mL (≈ 10.3 µM)
MIC [56]: > 128 µg/mL

NC[C@H]1O[C@@H](O[C@H]([C@H]2O[C@@H](n3ccc(=O)[nH]c3=O)[C@H](O)[C@@H]2O)n2cc(CCCCCCCCCCOc3ccc(C(=O)c4ccccc4)cc3)nn2)[C@H](O)[C@@H]1O
MIC [53]: 8 µg/mL (≈ 10.3 µM)
IC50 [57]: 25 µM

— ChEMBL document CHEMBL4402510, “Caprazamycins: Promising lead structures acting on a novel antibacterial target MraY” (Eur J Med Chem, 2019)
